Measurements: US20080274522A1, “METHOD FOR THE PRODUCTION OF 2-BUTANONE” (priority 2007, published 2008)

Columns and labels:
[1] = system: Erwinia amino alcohol O-phosphate lyase; experiment: Aminopropanol O-phosphate lyase assay (MBTH, OD670); type: biochemical, Erwinia carotovora subsp. atroseptica; conditions: 10 mM substrate, 37° C.
Description: The pBAD.KA-AT plasmid was transformed into the E. coli TOP10 strain. A 50 mL culture of TOP10/pBAD.KA-AT strain was grown to mid log phase (OD600=0.6) in LB, 100 μg/mL ampicillin media at 37° C. with shaking at 250 rpm. The culture was induced by addition of L-arabinose to a final concentration of 0.1% (w/v), and it was further incubated at 37° C. for 5 h before harvesting by centrifugation. The cell pellet was resuspended in ice cold 50 mM Tris-HCl, pH 8.0, and disrupted by sonication on ice with a Fischer Sonic Model 300 Dismembrator (Fischer, Pittsburgh, Pa.) at 50% power, repeating four cycles of 30 seconds sonication with 60 seconds rest in-between each cycle. Each sonicated sample was centrifuged (15,000×g, 4 min, 4° C.). Clarified cell free extracts were analyzed for protein expression level and amino alcohol O-phosphate lyase activity.
The aminopropanol O-phosphate lyase assay was performed as described by Jones et al. (1973, Biochem. J. 134:167-182) and G. Gori et al. (1995, Chromatographia 40:336) The formation of propionaldehyde from aminopropanol O-phosphate was assayed calorimetrically with MBTH, which allows the detection of aldehyde formation. The reaction was performed as follows. In a 1 mL reaction, 100 μg cell free extract of E. coli TOP10/pBAD.KA-AT was added to 10 mM DL-1-amino-2-propanol O-phosphate in 100 mM Tris-HCl, pH 7.8, with 0.1 mM PLP. The reaction was incubated at 37° C. for 10 min and 30 min, with an aliquot of 100 μL reaction mixture removed at each time point and mixed with 100 μL of 6 mg/mL MBTH in 375 mM glycine-HCl, pH 2.7. This mixture was incubated at 100° C. for 3 min, cooled on ice for 15-30 s, and 1 mL of 3.3 mg/mL FeCl3.6H2O (in 10 mM HCl) was added, followed by incubation for 30 min at room temperature. The absorbance of the reaction mixture which contains the aldehyde-MBTH adduct, was measured at 670 nm. In the presence of the aminopropanol phosphate substrate, PLP and cell free extract, formation of aldehyde was detected, as indicated by an Abs670 that was higher than the control background of up to 0.3. In the absence of either the substrate or the cell free extract, no aldehyde formation was detected. In the absence of added PLP, somewhat less amount aldehyde was detected, presumably due to the presence of PLP in the cell free extract.

[2] = system: B12-independent diol dehydratase; conditions: Hartmanis et al. (1986); cited from earlier work
E. coli strain BW25113 = experiment: Survival of E. coli in MEK shock; type: cell-based, Escherichia coli; conditions: for % Survival at 28° C. / % Survival at 37° C.: 30 min, average of duplicate experiments
Description: Survival of MEK shock was tested at exposure temperatures of 28° C. or 37° C.

[3] = system: Lactobacillus plantarum PN0512; experiment: Growth of L. plantarum PN0512 in the presence of butanols at different temperatures (OD600); type: cell-based; design: key to Growth of L. plantarum PN0512 in the presence of 1-butanol / Growth of L. plantarum PN0512 in the presence of isobutanol / Growth of L. plantarum PN0512 in the presence of 2-butanol: +: growth observed as an increase in OD600.; −: no growth observed, i.e. no change in OD600
Description: Tolerance levels of bacterial strain Lactobacillus plantarum PN0512 (ATCC # PTA-7727) were determined at 25° C., 30° C. and 37° C. as follows. The strain was cultured in S30L medium (i.e., 10 mM ammonium sulfate, 5 mM potassium phosphate buffer, pH 7.0, 50 mM MOPS, pH 7.0, 2 mM MgCl2, 0.7 mM CaCl2, 50 μM MnCl2, 1 μM FeCl3, 1 μM ZnCl2, 1.72 μM CuCl2, 2.53 μM COCl2, 2.42 μM Na2MoO4, 2 μM thiamine hydrochloride, 10 mM glucose, and 0.2% yeast extract). An overnight culture in the absence of any test compound was started in 15 mL of the S30L medium in a 150 mL flask, with incubation at 37° C. in a shaking water bath. The next morning, the overnight culture was diluted into three 500 mL flasks containing 150 mL of fresh medium to an initial OD600 of about 0.08. Each flask was incubated in a shaking water bath, one each at 25° C., 30° C. and 37° C. Each large culture was allowed to acclimate at the test temperature for at least 0.5 h. […] Growth was followed by measuring OD600 for six hours after addition of the compounds.

glycerol dehydratase = experiment: Butanediol dehydratase activity of glycerol dehydratase; type: biochemical, Klebsiella pneumoniae; conditions: 10 mM meso-2,3-butanediol, 12 μM coenzyme B12, pH 8.2, 37° C., crude cell free extract of KLP23/pSYCO12
Source text: Glycerol dehydratase (E.C. 4.2.1.30) and diol dehydratase (E.C. 4.2.1.28), while structurally related, are often distinguished in the art based on various differences that include substrate specificity. […] The recombinant E. coli strain KLP23/pSYCO12, comprising Klebsiella pneumoniae genes encoding the multiple subunits of glycerol dehydratase (alpha: SEQ ID NO:145 (coding region) and 146 (protein); beta: SEQ ID NO: 147 (coding region) and 148 (protein); and gamma: SEQ ID NO: 149 (coding region) and 150 (protein)) and Klebsiella pneumoniae genes encoding the multiple subunits of glycerol dehydratase reactivase (large subunit, SEQ ID NO: 151 (coding region) and 152 (protein); and small subunit, SEQ ID NO: 153 (coding region) and 154 (protein)), is described in Emptage et al. U.S. Pat. No. 6,514,733 and in WO 2003089621, which are herein incorporated by reference. A crude, cell free extract of KLP23/pSYCO12 was prepared by methods known to one skilled in the art. […] The formation of 2-butanone was monitored by HPLC (Shodex SH-1011 column and SH-G guard column with refractive index detection; 0.01 M H2SO4 as the mobile phase at a flow rate of 0.5 mL/min and a column temperature of 50° C.; 2-butanone retention time=40.2 min). The rate of 2-butanone formation by the glycerol dehydratase preparation was determined to be 0.4 nmol/min/mg of crude protein.

[4] = Sample 2: induced cell free extract, PLP (+)
[5] = Sample 4: induced cell free extract, PLP (−)

CC(CN)OP(=O)(O)O (racemic) [Aminopropanol O-phosphate, DL-1-amino-2-propanol O-phosphate]
OD670, 10 min [1, 4]: 1.229 | OD670, 30 min [1, 4]: 2.264 | OD670, 10 min [1, 5]: 0.855 | OD670, 30 min [1, 5]: 1.454

CC(O)C(C)O (stereo not shown) [2,3-butanediol]
Activity relative to the activity towards ethanediol [2]: less than 1%

CCC(C)=O [MEK, 2-butanone]
Concentration with full survival (E. coli strain BW25113; 28° C.): 6 % w/v | Concentration with full survival (E. coli strain BW25113; 37° C.): 4 % w/v | Concentration with no survival (E. coli strain BW25113; 37° C.): 6 % w/v | % Survival at 28° C. (E. coli strain BW25113; MEK 4 % w/v): 100% | % Survival at 37° C. (E. coli strain BW25113; MEK 4 % w/v): 100% | % Survival at 28° C. (E. coli strain BW25113; MEK 6 % w/v): 100% | % Survival at 37° C. (E. coli strain BW25113; MEK 6 % w/v): 0% | % Survival at 28° C. (E. coli strain BW25113; MEK 8 % w/v): 0.002% | % Survival at 37° C. (E. coli strain BW25113; MEK 8 % w/v): 0%

CC(C)CO [isobutanol]
Growth of L. plantarum PN0512 in the presence of isobutanol ([3]; 0.5 % w/v, 37° C.): + | Growth of L. plantarum PN0512 in the presence of isobutanol ([3]; 1.0 % w/v, 37° C.): + | Growth of L. plantarum PN0512 in the presence of isobutanol ([3]; 1.5 % w/v, 25° C.): + | Growth of L. plantarum PN0512 in the presence of isobutanol ([3]; 1.5 % w/v, 30° C.): + | Growth of L. plantarum PN0512 in the presence of isobutanol ([3]; 1.5 % w/v, 37° C.): + | Growth of L. plantarum PN0512 in the presence of isobutanol ([3]; 1.6 % w/v, 37° C.): + | Growth of L. plantarum PN0512 in the presence of isobutanol ([3]; 1.8 % w/v, 37° C.): + | Growth of L. plantarum PN0512 in the presence of isobutanol ([3]; 2.0 % w/v, 25° C.): + | Growth of L. plantarum PN0512 in the presence of isobutanol ([3]; 2.0 % w/v, 30° C.): + | Growth of L. plantarum PN0512 in the presence of isobutanol ([3]; 2.0 % w/v, 37° C.): + | Growth of L. plantarum PN0512 in the presence of isobutanol ([3]; 2.1 % w/v, 37° C.): + | Growth of L. plantarum PN0512 in the presence of isobutanol ([3]; 2.3 % w/v, 37° C.): + | Growth of L. plantarum PN0512 in the presence of isobutanol ([3]; 2.4 % w/v, 25° C.): + | Growth of L. plantarum PN0512 in the presence of isobutanol ([3]; 2.4 % w/v, 30° C.): + | Growth of L. plantarum PN0512 in the presence of isobutanol ([3]; 2.4 % w/v, 37° C.): + | Growth of L. plantarum PN0512 in the presence of isobutanol ([3]; 2.7 % w/v, 25° C.): + | Growth of L. plantarum PN0512 in the presence of isobutanol ([3]; 2.7 % w/v, 30° C.): + | Growth of L. plantarum PN0512 in the presence of isobutanol ([3]; 2.7 % w/v, 37° C.): + | Growth of L. plantarum PN0512 in the presence of isobutanol ([3]; 2.9 % w/v, 25° C.): + | Growth of L. plantarum PN0512 in the presence of isobutanol ([3]; 2.9 % w/v, 30° C.): + | Growth of L. plantarum PN0512 in the presence of isobutanol ([3]; 2.9 % w/v, 37° C.): + | Growth of L. plantarum PN0512 in the presence of isobutanol ([3]; 3.1 % w/v, 25° C.): + | Growth of L. plantarum PN0512 in the presence of isobutanol ([3]; 3.1 % w/v, 30° C.): + | Growth of L. plantarum PN0512 in the presence of isobutanol ([3]; 3.1 % w/v, 37° C.): + | Growth of L. plantarum PN0512 in the presence of isobutanol ([3]; 3.3 % w/v, 25° C.): + | Growth of L. plantarum PN0512 in the presence of isobutanol ([3]; 3.3 % w/v, 30° C.): −^2 | Growth of L. plantarum PN0512 in the presence of isobutanol ([3]; 3.4 % w/v, 37° C.): − | Growth of L. plantarum PN0512 in the presence of isobutanol ([3]; 3.6 % w/v, 25° C.): − | Growth of L. plantarum PN0512 in the presence of isobutanol ([3]; 3.8 % w/v, 37° C.): − | Growth of L. plantarum PN0512 in the presence of isobutanol ([3]; 4.3 % w/v, 37° C.): − | Concentration in which growth was observed ([3]; 25° C.): 3.5% | Concentration in which growth was not observed ([3]; 30° C.): 3.3% | Concentration in which growth was observed ([3]; 30° C.): 3.1% | Concentration in which growth was not observed ([3]; 37° C.): 3.4% | Concentration in which growth was observed ([3]; 37° C.): 3.1% | Growth of L. plantarum PN0512 in the presence of isobutanol ([3]; […] w/v, 25° C.): + | Growth of L. plantarum PN0512 in the presence of isobutanol ([3]; […] w/v, 37° C.): +

CC(O)C(C)O (stereo not drawn) [meso-2,3-butanediol]
Rate of 2-butanone formation (glycerol dehydratase): 0.4 nmol/min/mg of crude protein
